Data: PubChem BioAssay (NCI)
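Assay format: 96-well plates, 48-hour exposure. At the GI50, growth is halved. TGI: concentration producing complete growth inhibition.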

How the values were obtained:
Assay in all cases: NCI anticancer screen, dose series, 48 h
[1] = test system: OVCAR-5 ovarian
[2] = test system: SR leukemia
[3] = test system: DLD-1 colon
[4] = test system: DMS 273 small cell lung
[5] = test system: HOP-18 NSCLC
[6] = test system: KM20L2 colon
[7] = test system: LXFL 529 NSCLC
[8] = test system: M19-MEL melanoma
[9] = test system: SNB-78 CNS
[10] = test system: XF 498 CNS
[11] = test system: DMS 114 small cell lung
[12] = test system: RXF-631 renal

| Compound | TGI [1] [µM] | TGI [2] [µM] | further results |
| --- | --- | --- | --- |
| N#CC1C(=O)Nc2sc(C(=O)c3ccc(Br)cc3)c(N)c2C12CCCCC2 (configuration not stated) | > 100 | > 100 |  |
| CC1(C)OCC2OC3([C@H](O)CCO)OC(C)(C)OC3C2O1 (some centres not stated) | > 100 | > 100 |  |
| CCOC(=O)CCC(NC(=O)c1ccc(CNc2nc3cc(N)cc(N)c3nc2-c2ccccc2)cc1)C(=O)OCC (configuration not stated) | > 100 | 23.7 |  |
| OC(c1cccs1)c1cc2ccccc2s1 (configuration not stated) | > 10 | > 10 |  |
| COc1ccc(/C=C2\CN(C)CC3=C2OC(N)=C(C#N)C3c2ccc(OC)cc2)cc1 (configuration not stated) | > 100 | > 100 |  |
| O=[N+]([O-])c1ccc(Cl)cc1C1ON=C(c2ccccc2)N1C12CC3CC(CC(C3)C1)C2 (configuration not stated) | > 100 | > 100 |  |
| C#CC(O)/C=C/CCCCCCC#CC/C=C\CC#CCCCCCC/C=C/C(O)C#C (configuration not stated) | 7.86 | 18 |  |
| Cn1c(C(C#N)c2cc(Cl)ncn2)nc2ccccc21 (configuration not stated) | > 100 |  |  |
| N[C@@H]1c2c(Br)sc(Br)c2[C@H](O)[C@@H]1O | > 100 |  |  |
| CCOC(OCC)C(CC)[Se]c1ccccc1[N+](=O)[O-] (configuration not stated) | > 100 | > 40.1 | TGI [3]: > 90.2 µM; TGI [4]: 11.3 µM; TGI [5]: > 100 µM; TGI [6]: 6.36 µM; TGI [7]: > 100 µM; TGI [8]: > 100 µM; TGI [9]: > 100 µM; TGI [10]: > 49 µM |
| OC1C(O)C(O)C(O)C(O)C1O (configuration not stated) | > 1000 | > 1000 |  |
| CC12O[C@H](c3ccccc3)[C@H](c3ccccc3)N1C(=O)C1(C(=O)OCc3ccccc3)CC12 (some centres not stated) | > 100 |  | TGI [3]: > 100 µM; TGI [11]: > 100 µM; TGI [4]: > 100 µM; TGI [6]: > 100 µM; TGI [7]: > 100 µM; TGI [8]: > 100 µM; TGI [12]: > 100 µM; TGI [10]: > 100 µM |
| Cc1cccc(-c2cc(=O)c3ccc(C)nc3[nH]2)c1 | > 100 | 2.07 |  |
| NC(=O)N/N=C(\Cc1nc2ccc(C(=O)c3ccccc3)cc2[nH]c1=O)C(=O)Nc1ccc(Br)cc1 | > 100 | > 100 | TGI [3]: > 100 µM; TGI [11]: > 100 µM; TGI [4]: > 100 µM; TGI [5]: > 100 µM; TGI [6]: > 100 µM; TGI [7]: > 100 µM; TGI [8]: > 100 µM; TGI [9]: > 100 µM; TGI [10]: > 100 µM |
| O=c1c2cc(Br)ccc2oc2nc3n(c(=O)c12)CCCS3 | > 100 | > 100 |  |
| COC(=O)C(NC(=O)CNC(=O)CSc1nnc(COc2ccc(Cl)cc2)n1-c1ccccc1)C(C)C (configuration not stated) | 40.1 | 52.3 |  |
| FC(F)(F)c1ccc2c(c1)nc(Cc1ccccc1)n2C[C@@H]1CCCN2CCCCC12 (some centres not stated) | 31.7 | > 100 |  |

| Compound | TGI [1] [µM] | TGI [2] [µM] | further results |
| --- | --- | --- | --- |
| COC(=O)[C@H]1[C@H](C(=O)OC)[C@@H](C)c2c(ccc3c2[nH]c2ccccc23)[C@@H]1C | > 100 | > 100 |  |
| C[n+]1c2ccccc2c(CNC(CCC(N)=O)C(=O)O)c2ccccc21 (configuration not stated) | 18 | 3.71 | TGI [3]: 1.83 µM; TGI [11]: 2.04 µM; TGI [4]: 4.44 µM; TGI [5]: 11.8 µM; TGI [6]: 12.3 µM; TGI [7]: 2.26 µM; TGI [8]: 7.91 µM; TGI [9]: 25.7 µM; TGI [10]: 3.81 µM |
| COc1ccc(-c2cc(-c3ccc(Nc4ccnc5cc(C(F)(F)F)ccc45)cc3)[nH]c(=O)c2C#N)c2ccccc12 | > 100 | > 48.9 |  |
| OCCSCCCSCCO | > 100 | > 100 |  |
| COC1=CC(=O)C(O)=C(C[C@@]2(C)[C@@H]3CCC[C@H](COC(=O)CCCCCNC(=O)OC(C)(C)C)[C@@]3(C)CC[C@@H]2C)C1=O | > 10 | > 10 |  |
| CN1N=C2c3ccccc3CC[C@H]2C1c1ccccc1 (some centres not stated) | > 100 | > 100 | TGI [3]: > 100 µM; TGI [11]: 70.8 µM; TGI [4]: > 100 µM; TGI [5]: > 100 µM; TGI [6]: > 100 µM; TGI [7]: > 100 µM; TGI [8]: 66.1 µM; TGI [9]: > 100 µM |
| N#CCCC(CC#N)N1CCN(CCO)CC1 (configuration not stated) | > 100 | > 100 |  |
| O=C(O)c1c(CC(Cc2ccc3c(c2)CCCC3)C(=O)O)ccc2c1CCCC2 (configuration not stated) | > 100 | > 100 |  |
| CCCn1cnc2c(NN=O)ncnc21 | > 100 | > 100 |  |
| Cc1ccc(S(=O)(=O)N2CCSCCSCCN(S(=O)(=O)c3ccc(C)cc3)CCN(S(=O)(=O)c3ccc(C)cc3)CC2)cc1 | > 100 |  |  |
| Oc1ccc2c(c1)OCC(O)(c1ccccc1O)C2 (configuration not stated) | > 100 |  |  |
| O=c1ccc2ccccc2o1 | > 100 |  | TGI [3]: > 100 µM; TGI [11]: > 100 µM; TGI [5]: > 100 µM; TGI [6]: > 100 µM; TGI [7]: > 100 µM; TGI [8]: > 100 µM; TGI [9]: > 100 µM; TGI [10]: > 100 µM |
| CN1CCN(CC(=O)Nc2ccc3ncnc(Nc4ccc(Oc5cccc(C(F)(F)F)c5)c(Cl)c4)c3c2)CC1 | 2.98 | 2.2 | GI50 [1]: 1.58 µM; GI50 [2]: 0.371 µM |
| CC1=C/C(=N/N2C(=O)/C(=C/c3ccc(Cl)cc3)N=C2c2ccccc2)CC(C)(C)C1 | > 100 | > 100 |  |
| C=CCN1C(=O)/C(=C/c2ccc(C)cc2)N=C1SC/C=C/C | > 100 | 42.4 |  |
| Cc1ccc(NC(=O)CC(=O)n2nc(-c3ccccc3)c(N=Nc3ccc(Cl)cc3)c2-c2ccccc2)cc1 | > 100 |  | TGI [3]: 54.4 µM; TGI [11]: > 100 µM; TGI [4]: > 100 µM; TGI [5]: > 100 µM; TGI [6]: > 100 µM; TGI [7]: > 100 µM; TGI [8]: 60.4 µM; TGI [12]: > 100 µM; TGI [9]: > 100 µM |
| COC(=O)C1=NN2c3ccccc3C(=O)OCCC2C1 (configuration not stated) | > 100 | > 100 |  |
